In US12258329B2 (Merck Sharp & Dohme LLC, priority 2018, dated 2025):

Tested on: infected PBMCs (VSV-G pseudotyped HIV virus VSV-G/pNLG1-P2A-ΔEnv)
Experiment: cells
Type: cell-based, human
Details: Homo sapiens, PBMC, read-out: TACK EC50

Row | SMILES | EC50 [µM]
1 | Cc1nc(C)c(Cn2cnc(C(C)(F)F)c(Oc3cc(Cl)cc(C#N)c3C)c2=O)c(=O)[nH]1 [Example 4, 5-chloro-3-((4-(1,1-difluoroethyl)-1-((2,4-dimethyl-6-oxo-1,6-dihydropyrimidin-5-yl)methyl)-6-oxo-1,6-dihydropyrimidin-5-yl)oxy)-2-methylbenzonitrile] | 0.412
2 | Cc1nc(C)c(Cn2cnc(C(F)(F)C(F)(F)F)c(Oc3c(C)cc(C#N)cc3C)c2=O)c(=O)[nH]1 [Example 78, 4-((1-((2,4-dimethyl-6-oxo-1,6-dihydropyrimidin-5-yl)methyl)-6-oxo-4-(perfluoroethyl)-1,6-dihydropyrimidin-5-yl)oxy)-3,5-dimethylbenzonitrile] | 0.156
3 | Cc1nc(N)c(Cn2cnc(C(F)(F)C(F)(F)F)c(Oc3cc(Cl)cc(C#N)c3F)c2=O)c(=O)[nH]1 [Example 38, 3-((1-((4-amino-2-methyl-6-oxo-1,6-dihydropyrimidin-5-yl)methyl)-6-oxo-4-(perfluoroethyl)-1,6-dihydropyrimidin-5-yl)oxy)-5-chloro-2-fluorobenzonitrile] | 0.481
4 | Cc1ncc(Cn2cnc(C(F)(F)C(F)F)c(Oc3cc(C#N)cc(C(F)F)c3)c2=O)c(=O)[nH]1 [Example 2, 3-(difluoromethyl)-5-((1-((2-methyl-6-oxo-1,6-dihydropyrimidin-5-yl)methyl)-6-oxo-4-(1,1,2,2-tetrafluoroethyl)-1,6-dihydropyrimidin-5-yl)oxy)benzonitrile] | 0.411
5 | Cc1nc(C)c(Cn2cnc(C(F)(F)C(F)F)c(Oc3c(C)cc(C#N)cc3Cl)c2=O)c(=O)[nH]1 [Example 98, 3-chloro-4-((1-((2,4-dimethyl-6-oxo-1,6-dihydropyrimidin-5-yl)methyl)-6-oxo-4-(1,1,2,2-tetrafluoroethyl)-1,6-dihydropyrimidin-5-yl)oxy)-5-methylbenzonitrile] | 0.183
6 | Cc1nc(C)c(Cn2cnc(C(C)F)c(Oc3c(C)cc(C#N)cc3C)c2=O)c(=O)[nH]1 (single isomer, unassigned) [Example 43, (S) or (R)-4-((1-((2,4-dimethyl-6-oxo-1,6-dihydropyrimidin-5-yl)methyl)-4-(1-fluoroethyl)-6-oxo-1,6-dihydropyrimidin-5-yl)oxy)-3,5-dimethylbenzonitrile] | 0.438
7 | Cc1nc(C)c(Cn2cnc(C(F)(F)C(F)F)c(Oc3c(C)cc(C#N)cc3C3CC3)c2=O)c(=O)[nH]1 [Example 19, 3-cyclopropyl-4-((1-((2,4-dimethyl-6-oxo-1,6-dihydropyrimidin-5-yl)methyl)-6-oxo-4-(1,1,2,2-tetrafluoroethyl)-1,6-dihydropyrimidin-5-yl)oxy)-5-methylbenzonitrile] | 0.315
8 | Cc1nc(C)c(Cn2cnc(C(F)(F)C(F)(F)F)c(Oc3cc(Cl)cc(C#N)c3F)c2=O)c(=O)[nH]1 [Example 87, 5-chloro-3-((1-((2,4-dimethyl-6-oxo-1,6-dihydropyrimidin-5-yl)methyl)-6-oxo-4-(perfluoroethyl)-1,6-dihydropyrimidin-5-yl)oxy)-2-fluorobenzonitrile] | 0.217
9 | Cc1nc(C)c(Cn2cnc(C(F)(F)C(F)(F)F)c(Oc3cc(Cl)cc(C#N)c3C)c2=O)c(=O)[nH]1 [Example 72, 5-chloro-3-((1-((2,4-dimethyl-6-oxo-1,6-dihydropyrimidin-5-yl)methyl)-6-oxo-4-(perfluoroethyl)-1,6-dihydro-pyrimidin-5-yl)oxy)-2-methylbenzonitrile] | 0.377
10 | Cc1nc(C)c(Cn2cnc(C(F)(F)F)c(Oc3c(C)cc(C#N)cc3C)c2=O)c(=O)[nH]1 [Example 77, 4-((1-((2,4-dimethyl-6-oxo-1,6-dihydropyrimidin-5-yl)methyl)-6-oxo-4-(trifluoromethyl)-1,6-dihydropyrimidin-5-yl)oxy)-3,5-dimethylbenzonitrile] | 0.409
11 | Cc1nc(C)c(Cn2cnc(C(C)(F)F)c(Oc3c(Cl)cc(C#N)cc3Cl)c2=O)c(=O)[nH]1 [Example 13, 3,5-dichloro-4-((4-(1,1-difluoroethyl)-1-((2,4-dimethyl-6-oxo-1,6-dihydropyrimidin-5-yl)methyl)-6-oxo-1,6-dihydropyrimidin-5-yl)oxy) benzonitrile] | 0.395
